{"source": "patent US10493159B2", "about": "“Protein transduction domains mimics” (University of Massachusetts, priority 2010, dated 2019)", "test": "Transport activity, carboxyfluorescein release from vesicles, Hill analysis", "conditions": "EYPC⊃CF vesicles, no counterion activator", "protocol": "Transport activities for these novel PTDMs were determined using the standard biophysical assay well documented in the CPP literature. (Hennig, et al. 2008 J. Am. Chem. Soc. 130, 10338.) Specifically, 5(6)-carboxyfluorescein (CF) was used as a fluorescent probe in egg yolk phosphatidylcholine large unilamellar vesicles (EYPC-LUVs). The activity of these transporters increased with increasing polymer concentration at a constant vesicle concentration as detected by CF emission intensity, yielding plots of fluorescence intensity versus polymer concentration (FIG. 42, FIG. 43). […] (Sakai, et al. 2003 J. Am. Chem. Soc. 125, 14348; Sakai, et al. 2006 Soft Matter 2, 636; Sakai, et al. 2005 Chembiochem 6, 114; Hennig, et al. 2008 J. Am. Chem. Soc. 130, 10338; Nishihara, et al. 2005 Org. Biomol. Chem., 3, 1659; Perret, et al. 2005 J. Am. Chem. Soc. 127, 1114.) This analysis gave Ymax (maximal CF release relative to complete release by Triton X-100), EC50 (effective polymer concentration needed to reach Ymax/2), and the Hill coefficient n (see Table 2).\nPreparation of EYPC-LUVs⊃CF. […]\nPolymer Activity in EYPC-LUVs⊃CF. […] The time-dependent change in fluorescence intensity It (λex=492 nm, λem=517 nm) was monitored during the addition of polymer (20 μL stock solution in DMSO) at t=100 s, and addition of 40 μl 1.2% (aq.) triton X-100 at the end of every experiment (t=900 s) (FIG. 42). […]", "data": [{"substance": "polyarginine", "values": [{"measurement": "transport activity", "value": "inactive"}]}]}
